Measurements published in patent US11951131B2, “Anti-SLAMF7 chimeric antigen receptors” (The United States of America, as represented by the …, priority 2018, dated 2024).

Experiments:
MM.1S = test: IFN-gamma ELISA, CAR T cells with MM.1S target cells; assay type: cell-based, human
Description: (§1) MM.1S is a SLAMF7^+ multiple myeloma cell line that was obtained from American Type Culture Collection (ATCC). A549 is a BCMA-negative lung cancer cell line (ATCC). TC71 is a BCMA-negative sarcoma cell line. CCRF-CEM, 293T, and A549 are SLAMF7-negative cell lines (ATCC). COL0207, HepG2, U251, Panc10.05, and TC71 are […] that were kind gifts from Dr. Steven Rosenberg, National Cancer Institute. SLAMF7-K562 are K562 cells (ATCC) which were transduced with the gene for full-length SLAMF7. SLAMF7-RPMI are RPMI8226 cells (ATCC) which were transduced with the gene for full-length SLAMF7. NGFR-K562 are K562 cells which were transduced with the gene for low-affinity nerve growth factor (Kochenderfer et al., J. Immunother., 32(7): 689-702 (2009)). All of the human samples mentioned were obtained from patients enrolled in IRB-approved clinical trials at the National Cancer Institute.
(§2) One-hundred thousand SLAMF7^+ or SLAMF7-negative target cells were combined with 100,000 CAR-transduced T cells in duplicate wells of a 96 well round bottom plate in 200 µL of AIM V™ medium (Invitrogen) plus 5% human serum. The plates were incubated at 37° C. for 18-20 hours. Following the incubation, ELISAs (enzyme-linked immunosorbent assays) for IFNγ were performed by using standard methods.
(§3) All values are pg/mL of IFN-gamma. T cells that were either untransduced or transduced with one of the indicated CARs were cultured with target cells overnight, and a standard IFN-gamma ELISA was performed on the culture supernatant.

T cells only = test: IFN-gamma ELISA, T cells only (no target cells); assay type: cell-based, human
Description: as §2
(§4) The T cells columns indicate whether T cells were transduced with Luc90-CD828Z, Luc63-CD828Z, or were untransduced. The % CAR^+ in Table B-1 was determined by staining the T cells with Protein L. Except for the % CAR^+ column, all values are pg/mL of IFN-gamma. T cells that were either untransduced or transduced with one of the indicated CARs were cultured with target cells overnight and a standard IFN-gamma ELISA was performed on the culture supernatant.
as §3
(§5) The values in the cells are pg/mL of IFN-gamma. T cells that were either untransduced or transduced with one of the indicated CARs were cultured with target cells overnight, and a standard IFN-gamma ELISA was performed on the culture supernatant. The concentrations of 0, 50, or 200 ng/mL at the top of each column indicates the concentration of soluble SLAMF7 added to all T cell plus target cell overnight cultures in that column. The soluble SLAMF7 was added at the beginning of the overnight culture.

[1] = test system: MM.1S human SLAMF7^+ multiple myeloma solid tumors; test: MM.1S solid tumor model in NSG mice, anti-tumor efficacy; assay type: in vivo; conditions: for anti-tumor activity: 2 million CAR^+ T cells per mouse, 5 mice per group (FIG. 17)
Description: First, MM.1S human SLAMF7^+ multiple myeloma cell line tumors were established in immunodeficient mice. In this model, the MM.1S cells formed a solid cutaneous mass. Measurable tumors were allowed to develop over 7 days, and then the mice were treated with a single intravenous infusion of MSGV1-IC9-Luc90-CD828Z-transduced human T cells. NSG mice (NOD.Cg-Prkdc^scid Il2rg^tm1Wjl/SzJ) from The Jackson Laboratory, Bar Harbor, Me., were used. Mice received intradermal injections of 4×10^6 MM.1S cells. The cells were suspended in a 1:1 mixture of MATRIGEL™ gelatinous protein mixture (BD Biosciences) and PBS (Phosphate-buffered saline) for injection. Tumors were allowed to grow for 7 days, and then each mouse received a single intravenous infusion of human T cells that were transduced with one of 3 CARs: IC9-Luc90-CD828Z (suicide gene+anti-SLAMF7 CAR), Luc90-CD828Z (anti-SLAMF7 CAR alone), or a negative-control anti-CD19 CAR Hu19-CD828Z. A 4th group was left untreated. All groups included 5 mice. After CAR T-cell infusion, the tumors were measured with calipers every 3 days. The longest length and the length perpendicular to the longest length and the tumor thickness were multiplied together to obtain the tumor volume in mm^3. When the longest length reached 15 mm, mice were sacrificed. Animal studies were approved by the National Cancer Institute Animal Care and Use Committee.
FIGS. 16A-16B show a dose-titration of IC9-Luc90-CD828Z-expressing T cells. In this experiment, immunocompromised NSG mice were injected intradermally with 4×10^6 MM.1S cells to form a solid mass. Mice were then treated with a single infusion of 0.5×10^6, 2×10^6, or 8×10^6, IC9-Luc90-CD828Z-expressing T cells. […] The tumor volume curves end when the first mouse of a group was sacrificed.
MM.'S tumors were established in NSG mice as described in Example 9. FIGS. 17A-17B show results in which mice bearing MM.1S tumors were treated with T cells expressing one of 3 different CARs: IC9-Luc90-CD828Z (suicide gene+anti-SLAMF7 CAR), Luc90-CD828Z (anti-SLAMF7 CAR alone), or a negative-control anti-CD19 CAR Hu19-CD828Z. A 4th group was left untreated in both experiments. All groups included 5 mice. The CARP T cell dose was 2 million CARP T cells per mouse. There were 5 mice in all groups.

NGFR-K562 = test: IFN-gamma ELISA, CAR T cells with NGFR-K562 target cells; assay type: cell-based, human
Description: as §1, §2, §4, §3, §5

[2] = dose of 2 million or more T cells per mouse

Substance: IC9-Luc90-CD828Z: CAR plus suicide gene construct (SEQ ID NO: 31): IC9 suicide gene 5′ to the CAR, T2A, Luc90-CD828Z
- IFN-gamma, MM.1S (MM.1S; Table E): 1849 pg/mL
- IFN-gamma, T-cells Alone (T cells only; Table E): 38 pg/mL
- dose dependence of activity against established tumors ([1]; 0.5×10^6 to 8×10^6 T cells): dose-dependent activity
- anti-tumor activity [1]: powerful anti-tumor activity
- survival [1, 2]: mice survive long-term
- tumor eradication [1, 2]: tumors can be eradicated
- effect on tumors ([1]; single infusion of 0.5×10^6 CAR^+ T cells (FIG. 16)): only slightly slowed tumor growth relative to untreated mice but did not eliminate any tumors
- effect on tumors ([1]; single infusion of 2×10^6 CAR^+ T cells (FIG. 16)): eliminated all tumors
- effect on tumors ([1]; single infusion of 8×10^6 CAR^+ T cells (FIG. 16)): eliminated all tumors
- IFN-gamma, NGFR-K562 (NGFR-K562; Table E): 30 pg/mL

Substance: Luc90-CD828Z: anti-SLAMF7 CAR (SEQ ID NO: 27): murine Luc90 scFv, human CD8a hinge and TM, CD28 and CD3ζ domains; tested as transduced T cells
- IFN-gamma, target cells MM.1S (MM.1S; Table C): 4269 pg/mL
- IFN-gamma, T cells only (T cells only; Table B-2): 29 pg/mL
- IFN-gamma, T cells only (T cells only; Table C): 33 pg/mL
- IFN-gamma, T cells 0 ng/ml (T cells only; Table D, no target cells, soluble SLAMF7 0 ng/ml): 172 pg/mL
- IFN-gamma, T cells 50 ng/ml (T cells only; Table D, no target cells, soluble SLAMF7 50 ng/ml): 160 pg/mL
- IFN-gamma, T cells 200 ng/ml (T cells only; Table D, no target cells, soluble SLAMF7 200 ng/ml): 41 pg/mL
- anti-tumor activity [1]: powerful anti-tumor activity
- IFN-gamma, target cells NGFR-K562 (NGFR-K562; Table B-2, SLAMF7-negative): 45 pg/mL
- IFN-gamma, target cells NGFR-K562 (NGFR-K562; Table C): 26 pg/mL
- IFN-gamma, target cells NGFR K562 0 ng/ml (NGFR-K562; Table D, soluble SLAMF7 added 0 ng/ml): 267 pg/mL
- IFN-gamma, target cells NGFR K562 50 ng/ml (NGFR-K562; Table D, soluble SLAMF7 added 50 ng/ml): 223 pg/mL
- IFN-gamma, target cells NGFR K562 200 ng/ml (NGFR-K562; Table D, soluble SLAMF7 added 200 ng/ml): 224 pg/mL
